Molecular target: T1, human NTPDase2 (Homo sapiens, UniProt Q9Y5L3)
T1 construct: made in house; host or cells: COS-7 cells
T1 sequence (Q9Y5L3 1-495): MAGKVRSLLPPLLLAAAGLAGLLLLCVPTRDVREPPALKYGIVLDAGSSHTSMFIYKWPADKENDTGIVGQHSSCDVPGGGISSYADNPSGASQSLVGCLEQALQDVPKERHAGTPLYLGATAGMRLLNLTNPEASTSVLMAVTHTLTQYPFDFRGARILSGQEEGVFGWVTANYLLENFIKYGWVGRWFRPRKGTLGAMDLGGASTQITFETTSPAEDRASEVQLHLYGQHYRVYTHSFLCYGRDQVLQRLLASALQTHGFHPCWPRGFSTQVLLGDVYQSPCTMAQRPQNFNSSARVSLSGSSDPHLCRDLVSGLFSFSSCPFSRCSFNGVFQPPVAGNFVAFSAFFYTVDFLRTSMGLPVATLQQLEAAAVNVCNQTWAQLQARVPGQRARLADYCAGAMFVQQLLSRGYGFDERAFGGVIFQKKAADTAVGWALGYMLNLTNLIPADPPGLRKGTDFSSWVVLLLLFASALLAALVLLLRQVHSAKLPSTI
Test: NTPDase CE-based assay, NTPDase2
Type: biochemical
Details: 20 µg/mL (12 µM); read-out: NTPDase2 inhibition, selectivity study
Method: For monitoring the activity of human NTPDases (subtypes 1, 2, 3 and 8) in the presence of test compounds, a CE-based assay system was used, according to a published procedure ([11], [25]). The following concentrations of test compounds were investigated in initial screening studies: 63 IU/mL of compounds 1 and 2, 30 µM of compound 6. For selectivity studies, the following concentration were employed: 50 IU/mL of 1, 12 µM of 6, and 48 µM of 7. The amount of enzyme was selected according to previously performed enzymatic titration, and adjusted to ensure a 10–20% conversion rate. Enzymes were obtained by transfection of COS-7 cells using plasmids encoding human NTPDase1 (GenBank accession number U87967) ([26]), NTPDase2 (NM_203468) ([27]), a kind gift of Dr. A.F. Knowles (San Diego, CA), NTPDase3 (AF034840) ([28]), a kind gift of Dr. T.L. Kirley (Cincinnati, OH) and human NTPDase8 (AY430414) ([29]) and purified as previously described ([30], [31]). The reaction buffer consisted of 10 mM HEPES, 2 mM CaCl2, and 1 mM MgCl2, pH 7.4. In the CE assay, the selected substrate concentration (ATP) was 100 µM for all studied human NTPDases (-1, -2, -3 and -8). […] The released products were separated by CE and quantified by their UV-absorption at 260 nm with ADP and AMP as external standards, as previously described ([11]); positive and negative controls were included.

Work on `CO[C@H]1O[C@H](COS(=O)(=O)O)[C@@H](O[C@@H]2O[C@@H](C(=O)O)[C@@H](O[C@H]3O[C@H](COS(=O)(=O)O)[C@@H](O[C@@H]4O[C@H](C(=O)O)[C@@H](O[C@H]5O[C@H](COS(=O)(=O)O)[C@@H](O)[C@H](O)[C@H]5NS(=O)(=O)O)[C@H](O)[C@H]4O)[C@H](OS(=O)(=O)O)[C@H]3NS(=O)(=O)O)[C@H](O)[C@H]2OS(=O)(=O)O)[C@H](O)[C@H]1NS(=O)(=O)O` [Compound 6, Fondaparinux] yielded an inhibition at 12 µM of ~35%.
